Experimental data reported in ChEMBL document CHEMBL3271996, “Potential antitumor agents. Synthesis of bifunctional alpha-methylene-gamma-butyrolactones” (J Med Chem, 1976).
Values after ≈ are worked out from the molar mass of the structure shown. Active and inactive are the calls of the source. The rule behind the calls is not given here.

Columns and labels:
L1210 [1] = test: Antitumor activity against mouse L1210 cells allografted in mouse at 100 to 400 mg/kg; type: functional, organism-based
9KB = test: (§1) Cytotoxicity against human 9KB cells; type: functional
[2] = as §1; type: functional; settings: read-out: ED50 (the source's name)
L1210 [3] = test: Antitumor activity against mouse L1210 cells allografted in mouse; type: functional
W256 [4] = test: Antitumor activity against rat Walker 256 cells allografted in rat assessed as inhibition of tumor growth at 18.75 mg/kg; type: functional; settings: read-out: TGI
Rattus norvegicus [5] = test: Toxicity in rat Walker 256 cells allografted rat at 37.5 mg/kg; type: organism-based; design: dose 37.5 mg/kg; settings: in vivo
HeLa = test: Cytotoxicity against human HeLa cells at 5 ug/ml; type: functional, cell-based
W256 [6] = test: Antitumor activity against rat Walker 256 cells allografted in rat assessed as inhibition of tumor growth at 120 mg/kg; type: functional; settings: read-out: TGI
Rattus norvegicus [7] = test: Toxicity in rat Walker 256 cells allografted rat at 240 mg/kg; type: organism-based; design: dose 240 mg/kg; settings: in vivo
W256 [8] = test: Antitumor activity against rat Walker 256 cells allografted in rat; type: functional
Rattus norvegicus [9] = species: Rattus norvegicus; test: Toxicity in rat Walker 256 cells allografted rat; type: organism-based

For O=C1OCC/C1=C\OCCCCCO/C=C1\CCOC1=O, the Activity (L1210 [1]) was “inactive”.

In the case of Cc1ccc(S(=O)(=O)O/C=C2\CCOC2=O)cc1, the Activity (L1210 [1]) is reported as “inactive” and the Activity (9KB) is reported as “inactive”.

For O=C1OCC/C1=C\OCCCO/C=C1\CCOC1=O, the Activity (L1210 [1]) was “inactive”.

With C=C1CC(CCCCCC2CC(=C)C(=O)O2)OC1=O (stereo not given) the EC50 [2] was 15 µg/mL (≈ 56.7 µM) and the Activity (L1210 [3]) was “inactive”.

C=C1CCOC1=O [TULIPALINE A] showed an EC50 [2] of 16 µg/mL (≈ 163 µM).

In the case of O=C(Cc1ccccc1)O/C=C1\CCOC1=O, the Activity (L1210 [1]) is reported as “inactive” and the Activity (9KB) is reported as “inactive”.

For O=C1OCC/C1=C\OCCO/C=C1\CCOC1=O, the Activity (L1210 [1]) was “inactive” and the Activity (9KB) was “inactive”.

With O=C1OCC/C1=C\OCCCCCCCCCCO/C=C1\CCOC1=O the Activity (L1210 [1]) was “inactive”.

With C=C1CC(CCCC2CC(=C)C(=O)O2)OC1=O (stereo not given) the inhibition in vivo at 18.75 mg/kg (W256 [4]) was 45%, the EC50 [2] was 4 µg/mL (≈ 16.9 µM) and the Activity (L1210 [3]) was “inactive”. For the same molecule, the Activity (Rattus norvegicus [5]) was “Toxic”.

In the case of O=C1OCC/C1=C\OCCCCO/C=C1\CCOC1=O, the Activity (L1210 [1]) is reported as “inactive” and the Activity (9KB) is reported as “inactive”.

With O=C1OCC/C1=C\OC(=O)c1ccccc1 the Activity (L1210 [1]) was “inactive”.

In the case of C=C1CC(CCCCCCC2CC(=C)C(=O)O2)OC1=O (stereo not given), the EC50 [2] is reported as 7 µg/mL (≈ 25.1 µM) and the Activity (L1210 [3]) is reported as “inactive”.

For CC1(O/C=C2\CCOC2=O)C=CC(=O)O1 (stereo not given), the Activity (HeLa) was “Active”, the inhibition in vivo at 120 mg/kg (W256 [6]) was 27% and the Activity (Rattus norvegicus [7]) was “Toxic”.

In the case of O=C1OCC/C1=C\OCCCCCCO/C=C1\CCOC1=O, the Activity (L1210 [1]) is reported as “inactive”, the Activity (9KB) is reported as “inactive” and the Activity (W256 [8]) is reported as “inactive”. The Activity (Rattus norvegicus [9]) was “Non-toxic”.

With C=C1CC(CCCCC2CC(=C)C(=O)O2)OC1=O (stereo not given) the EC50 [2] was 32 µg/mL (≈ 128 µM) and the Activity (L1210 [3]) was “inactive”.
